Literature values as cited in US20050164162A1, “Methods for multiple parameters screening and evolution of cells to produce small molecules with multiple functionalities” (EVOLVA LTD., C/O DR. IUR. MARTIN EISENRING, priority 2002, published 2005).

Tests used:
[1] = system: colorectal cancer; conditions: persons who regularly use Aspirin and other NSAIDs; population-based studies
[2] = co-administration of retinoids (LG100268)+TZDs; clinical studies

Structure (SMILES)	decrease in relative risk for colorectal cancer [1]	increases insulin sensitivity and glucose uptake [2] [%]
CC(=O)Oc1ccccc1C(=O)O [Aspirin]	40-50%	–
Cc1cc2c(cc1C1(c3ccc(C(=O)O)cn3)CC1)C(C)(C)CCC2(C)C [LG100268]	–	60
